Data as given in US10208074B2, “Pyrazole compounds and method for making and using the compounds” (Rigel Pharmaceuticals, Inc., priority 2015, dated 2019).
pEC50: −log10 of the molar value. Where a name gives a salt, the structure may show the parent alone. Read-outs that look alike come from different tables or passages of the source.

Experiments:
IL-23 (p19/p40) = assay: IL23-p19 ELISA, Dendritic, LPS (compound screening using DC cells); type: cell-based, Human; conditions: PBMC-derived DC cells, IFNγ primed, LPS 1 μg/ml, 18 hours, 10 pt, read-out: IL23-p19 ELISA, Dendritic, LPS, 10 pt, EC50
Protocol: Compound Screening Using DC Cells
Human PBMC cells (400 million) obtained from the vendor were transferred into a T-175 flask containing 15 ml RPMI media (10% FBS) and incubate for 2 hours at 37° C. After 2 hours, the media including floating cells was aspirated out carefully and 12 ml of fresh RPMI media (10% FBS) containing GMCSF (100 ng/ml) and IL4 (20 ng/ml) was added, and the flask was kept in a 37° C. incubator for 7 days.
After 3 days, fresh GMCSF (100 ng/ml) and IL4 (20 ng/ml) were added to the flask and the incubation continued. After 7 days, the fully differentiated cells were harvested by spinning down (1200 rpm/5 min) and aspirating the media. The cells were suspended in fresh RPMI media (10% FBS) containing 50 ng/ml IFNγ (1000 U/ml) and then plated (50K/well in 100 μl) onto a white clear bottom 96 well plate and left in a 37° C. incubator for 24 hours.
After 24 hours incubation, 100 μl of RPMI media was added containing 2× concentrated test compound per well to the above cell-culture media (final concentration becomes 1×) and the plates were pre-incubated for 1 hour at 37° C. before stimulating with LPS.
After 1 hour compound pre-incubation, 10 piper well of 20× concentrated LPS solution in RPMI media was added to give a final concentration of 1 μg/ml. The mixture was shaken and incubated the plates at 37° C. for an additional 18 hours.
155 μl of the supernatant was harvested from each well carefully (without the tip touching the bottom of the well) and to the remaining 50 μl/well of the cell culture plate was added 50 μl of Cell Titer Glo reagent. The mixture was incubated for 1-2 minutes on a shaker and the plate was read for luminescence intensity to determine the compound cytotoxicity. The cell culture supernatant collected above was used to carry out IL23 ELISA (65 μl -Supernatant) and IL10 ELISA (90 μl—Supernatant) as described below.
Human IL-23 (p19/p40) ELISA Protocol (e-Biosciences)
To 10.5 ml PBS add 50 μl of anti-IL23 (p19) was added capture antibody (2.5 μg/ml). The mixture was mixed well and 100 μl of the coating solution was added to each well of the 96 well white plates from Pierce. The wells were covered and incubated overnight at 4° C.
The anti-IL23 (p19)-antibody-coated plates were washed 2× using TBST (use plate washer) and blocked using 200 μl of 0.5% Casein for 1.5-2 hours at room temperature with shaking.
The plates were washed 2× using TBST and the supernatant was transferred (65 μl/well) to the above pre-blocked/IL23(p19)-antibody-coated 96 well plate, and incubated at room temperature for 1.5 hours with shaking.
The plates were washed 4× using TBST (plate washer) and 100 μl/well detection antibody solution prepared from 2 μl of biotin labeled anti-IL-12 (p40/p70) antibody in 11 ml 1% BSA/PBS solution (1-5000 dilution) was added. The plates were incubated for 1 hour with shaking at Room temperature.
Again, the plates were washed 4× with TBST and 100 μl of HRP labeled Streptavidin (R&D Systems) solution (10 μl/10 ml 1% BSA solution) was added, and the plates were incubated at room temperature for another 45 minutes with shaking.
After 45 minutes, the plates were washed with TBST 4× and 100 ul/well Super Signal ELISA Pico Chemiluminescent Substrate from Pierce (3.5 ml A+3.5 ml B+3.5 ml MQ water) was added. The plates were shaken for 1-2 minutes then read on a plate reader.

IL-23p19 = assay: LPS induced IL23p19 in THP-1 cells (with IFNγ primed) assay; type: cell-based, Human; conditions: THP-1 cells, IFNγ primed, LPS 1 ug/mL, 18 hours, 10 pt, read-out: IL23-p19 ELISA, THP1-IFNy, LPS, 10 pt EC50
Excerpt: LPS Induced IL23p19 in THP-1 Cells (with IFNγ Primed) Assay
THP-1 Cells (ATCC, Cat#TIB-202), Dimethyl Sulfoxide (DMSO) (Sigma-Aldrich, Cat#D2650), RPMI 1640 (Cellgro, Cat#10-040-CM), Fetal Bovine Serum (Sigma, Cat#F4135), Albumin From Bovine Serum (BSA) (Sigma-Aldrich, Cat#A7906), LPS (Serotype K-235, Sigma, Product Number L 2143), IFNγ (Peprotech, Cat#300-02) Capture antibody: Human IL-23p19 ELISA (e-Bioscience, Cat. #14-7238-85), Detection antibody: Primary Mouse Biotinylated anti-human IL-12(p40/p70) (e-Bioscience, Cat. #13-7129-85), Secondary HRP-conjugated Streptavidin (R&D Systems, Cat#DY998), 1×PBST Washing Buffer (PBS-Tween tablet) (VWR International, Cat#80058-558), ELISA Blocking Buffer (PBS with 1% BSA), ELISA Dilution Buffer (PBS with 1% BSA), 384 Well Flat-Bottom, MaxiSorp Black Immuno Plates (Thermo Scientific, Cat#12-565-346), 384 Well Flat-Bottom, White Tissue Culture Plates (Thermo Scientific, Cat#12-565-343), Super Signal ELISA Pico Chemiluminescent Substrate (Thermo Scientific, Cat#37070), Cell Titer Glo reagent (Promega, Cat#G7573), Positive control, IKK2VI inhibitor (Calbiochem, Cat#401483), AquaMax 4000 plate washer (Molecular Devices), Luminometer, Wallac Victor2 1420 Multilabel Counter.
On day 1, 50K/well THP-1 cells were seeded and primed with IFNγ (50 ng/mL) in 384-well plates for about 18 hours in RPMI media with 10% FBS. On day 2, the compound was serially diluted in DMSO from 5 mM in 3-fold dilutions, and then diluted 1:125 in RPMI media with 10% FBS. 50 μL/well 2× compound was added to 50 μL/well THP-1 cells (with IFNγ primed) in duplicate in 384 well tissue culture plates. The cells were pre-incubated with compound for 1 hour at 37° C., 5% CO2 before addition of 10 μL/well 11×LPS to give a final concentration of 1 ug/mL LPS. Day 3, after stimulation for 18 hours at 37° C., 5% CO2, the assay plate was centrifuged and 70 μL/well supernatant was harvested. IL-23p19 protein in 70 μL/well of supernatant was measured by sandwich ELISA, and 25 μl/well Cell Titer Glo reagent was added to the remaining cells to measure compound toxicity.
Maxisorp immuno ELISA plates were pre-coated with 25 μL/well of anti-IL-23p19 capture antibody (2.5 ug/mL) in PBS overnight at room temperature. After washing with 1× PBST, the plates were blocked using 100 μL/well of 1% BSA in PBS for 2 hours at room temperature. The plates were washed three times with 1×PBST and 70 μL/well supernatant were added. The plates were incubated at room temperature for 2 hours with shaking and washed three times with 1×PBST. 25 μL/well of biotin labeled anti-IL-12(p40/p70) detection antibody (100 ng/mL) in PBS with 1% BSA was added and the plates were incubated at room temperature for 2 hours with shaking. After washing three times with 1×PBST, 25 μL/well of streptavidin-HRP (1:200) in PBS with 1% BSA was added and the plates were incubated at room temperature for 20 minutes with shaking. The plates were washed three times with 1× PBST and 25 μL/well of Super Signal ELISA Pico Chemiluminescent Substrate were added. The plates were read with a luminometer, and the chemiluminescence values were entered into Athena (Rigel) for curve fitting, EC50 calculation, and database storage.

SMILES	pEC50 (IL-23 (p19/p40); Homo sapiens, 18 h)	pEC50 (IL-23p19; Homo sapiens, THP-1, 18 h)	further results
O=C(Nc1cn(C2CCOCC2)nc1-c1ccccn1)c1coc(-c2cn[nH]c2)n1 [III-2, 2-(1H-pyrazol-4-yl)-N-(3-(pyridin-2-yl)-1-(tetrahydro-2H-pyran-4-yl)-1H-pyrazol-4-yl)oxazole-4-carboxamide]	6.87	7.40	
O=C(Nc1cn([C@H]2C[C@@H](OCC(F)(F)F)C2)nc1-c1cccc(F)n1)c1csc(-c2cn[nH]c2)n1 [II-170, N-(3-(6-fluoropyridin-2-yl)-1-((cis)-3-(2,2,2-trifluoroethoxy)cyclobutyl)-1H-pyrazol-4-yl)-2-(1H-pyrazol-4-yl)thiazole-4-carboxamide]	7.04	7.31	
CCO[C@H]1C[C@@H](n2cc(NC(=O)c3csc(-c4cnn(COP(=O)(O)O)c4)n3)c(-c3ccccn3)n2)C1 [II-16, (4-(4-((1-((1,3-cis)-3-ethoxycyclobutyl)-3-(pyridin-2-yl)-1H-pyrazol-4-yl)carbamoyl)thiazol-2-yl)-1H-pyrazol-1-yl)methyl phosphate bis-sodium salt]			pEC50 (IL-23 (p19/p40); phosphate bis-sodium salt): 6.28; pEC50 (IL-23p19; phosphate bis-sodium salt): 6.92
O=C(Nc1cn(C2CCOCC2)nc1-c1ccccn1)c1csc(-c2cn[nH]c2)n1 [II-10, 2-(1H-pyrazol-4-yl)-N-(3-(pyridin-2-yl)-1-(tetrahydro-2H-pyran-4-yl)-1H-pyrazol-4-yl)thiazole-4-carboxamide]	7.98	7.65	
Cn1cc(NC(=O)c2ccc(-c3cn[nH]c3)o2)c(-c2ccc(OCC(C)(C)O)cn2)n1 [Compound I-107, N-(3-(5-(2-hydroxy-2-methylpropoxy)pyridin-2-yl)-1-methyl-1H-pyrazol-4-yl)-5-(1H-pyrazol-4-yl)furan-2-carboxamide]	6.52	6.07	
O=C(Nc1cn([C@H]2C[C@@H](OCC(F)(F)F)C2)nc1-c1ncccc1F)c1csc(-c2cn[nH]c2)n1 [II-165, N-(3-(3-fluoropyridin-2-yl)-1-((cis)-3-(2,2,2-trifluoroethoxy)cyclobutyl)-1H-pyrazol-4-yl)-2-(1H-pyrazol-4-yl)thiazole-4-carboxamide]	7.34	7.35	
COCCn1cc(NC(=O)c2ccc(-c3cnn(C(=O)OC4(C)CC4)c3)o2)c(-c2ccccn2)n1 [Compound I-21, 1-methylcyclopropyl 4-(5-((1-(2-methoxyethyl)-3-(pyridin-2-yl)-1H-pyrazol-4-yl)carbamoyl)furan-2-yl)-1H-pyrazole-1-carboxylate]	6.34	6.70	
CCO[C@H]1C[C@@H](n2cc(NC(=O)c3csc(-c4cn[nH]c4)n3)c(-c3ccc(C(F)(F)F)cn3)n2)C1 [II-86, N-(1-((1,3-cis)-3-ethoxycyclobutyl)-3-(5-(trifluoromethyl)pyridin-2-yl)-1H-pyrazol-4-yl)-2-(1H-pyrazol-4-yl)thiazole-4-carboxamide]	5.24	6.86	
O=C(Nc1cn([C@H]2C[C@@H](O)C2)nc1-c1ccccn1)c1csc(-c2cn[nH]c2)n1 [II-14, N-(1-((1,3-cis)-3-hydroxycyclobutyl)-3-(pyridin-2-yl)-1H-pyrazol-4-yl)-2-(1H-pyrazol-4-yl)thiazole-4-carboxamide]	8.24	7.36	
Cn1cc(NC(=O)c2csc(-c3cnn(COP(=O)(O)O)c3)n2)c(-c2ccccn2)n1 [II-35, (4-(4-((1-methyl-3-(pyridin-2-yl)-1H-pyrazol-4-yl)carbamoyl)thiazol-2-yl)-1H-pyrazol-1-yl)methyl dihydrogen phosphate]	6.53	6.69	
O=C(Nc1cn(C2CCOCC2)nc1-c1nccs1)c1ccc(-c2cn[nH]c2)o1 [Compound I-65, 5-(1H-pyrazol-4-yl)-N-(1-(tetrahydro-2H-pyran-4-yl)-3-(thiazol-2-yl)-1H-pyrazol-4-yl)furan-2-carboxamide]			pEC50 (IL-23 (p19/p40)): 6.70; pEC50 (IL-23p19): 7.27
O=C(Nc1cn(CC2CCOCC2)nc1-c1ccccn1)c1csc(-c2cn[nH]c2)n1 [II-45, 2-(1H-pyrazol-4-yl)-N-(3-(pyridin-2-yl)-1-((tetrahydro-2H-pyran-4-yl)methyl)-1H-pyrazol-4-yl)thiazole-4-carboxamide formic acid salt]	6.89	6.89	
